{"source": "patent US20130011393A1", "about": "“BAD PATHWAY GENE SIGNATURE” (priority 2010, published 2013)", "format_in_all_cases": "cell-based, human", "key": {"[1]": {"test_system": "OVCA cell lines (A2780S, A2780CP, A2008, C13)", "assay": "Cisplatin-resistance by CellTiter-96 MTS proliferation assay in serially cisplatin-treated OVCA cell lines", "settings": "after in vitro cisplatin-treatment/expansion cycles versus cells prior to serial cisplatin treatment", "procedure": "Acquisition and culture conditions for the expansion of OVCA cells lines (T8, OVCAR5, OV2008, IGROV1, C13, A2780S, A2780CP, and A2008) were reported previouslyl^10. Cells were subjected to sequential treatment with increasing doses of cis-diammine-dichloroplatinum (cisplatin), using three dosing schedules resulting in […] treatment/expansion cycles. Treatment schedules A, B, and C included three treatments with 1, 2, and 3 μg/mL cisplatin, respectively, followed by three treatments with 3, 4, and 5 μg/mL, respectively. Each cisplatin treatment was followed by a cell recovery/expansion phase. Both cisplatin-resistance and genome-wide expression changes were measured serially in each cell line at baseline and after 3 and 6 cisplatin-treatment/expansion cycles. Cisplatin-resistance was quantified using CellTiter-96 MTS proliferation assays (Fisher Scientific) and analyzed genome-wide expression using Affymetrix Human U133 Plus 2.0 GeneChips as previously described^10,11 (Gene Expression Omnibus (GEO) accession number GSE23553).\nMany of the BAD-pathway genes found to be associated with evolution of in vitro cisplatin-resistance are known to influence BAD phosphorylation (FIG. 12). The inventors therefore tested the hypothesis that BAD-phosphorylation status is associated with OVCA cisplatin-resistance. […]"}, "[2]": {"test_system": "A2780S and A2780CP cells", "assay": "Apoptotic nuclei after cisplatin in cells transfected with BAD phosphorylation-site mutants", "settings": "1 μM (A2780S) or 10 μM (A2780CP) cisplatin, 48 hours", "procedure": "(§1) In FIGS. 14A and 14B, OVCA cell lines A2780S and A2780CP, respectively, were transfected with Flag vectors expressing wild-type BAD (WT) or BAD harboring serine (S) to alanine point mutations in serine-112, -136, or -155 (S112A, S136A, S155A). These S to A phosphorylation site mutations prevent phosphorylation of the BAD protein. Transfected cells were treated with vehicle or 1 μM (A2780S) or 10 μM (A2780CP) cisplatin for 48 hours and evaluated for the presence of apoptotic nuclei. FIG. 14C is a Western blot showing depletion of PP2C and PKA by siRNA. Controls included a non-targeting siRNA (NT). GAPDH was used as a loading control. […] Error bars indicate standard error of the mean.\n(§2) RNA duplexes for PP2C/PPM1A (s10909 from ABI), cAMP-dependent protein kinase (PKA; 6406 from Cell Signaling), and vectors containing mutated BAD (pFlag-600, a kind gift from Dr. Hong Gang Wang, MCC) were transfected using the Nucleofector transfection kit, with non-targeting Silencer negative control #2 siRNA (ABI), according to manufacturer's protocols (Amaxa).\n(§3) Morphologic assessment of condensed chromatin and fragmented DNA quantified percent apoptotic nuclei. Cells were fixed in 4% paraformaldehyde, and nuclei were stained with bis-benzimide trihydrochloride (0.5 μg/ml; Molecular Probes) and quantified using fluorescence microscopyl^5."}, "[3]": {"test_system": "A2780S cells", "assay": "Apoptotic nuclei after cisplatin following siRNA depletion of PKA or PP2C/PPM1A", "settings": "1 μM cisplatin", "procedure": "as §1, §2, §3"}}}
{"smiles": "N.N.[Cl][Pt][Cl]", "note": "[cisplatin, cis-diammine-dichloroplatinum]", "values": [{"measurement": "cisplatin EC50", "setting": "[1]", "result": "higher"}, {"measurement": "cisplatin sensitivity (apoptotic nuclei)", "setting": "[2]; cells transfected with BAD[112A]", "result": "no effect"}, {"measurement": "cisplatin-induced apoptosis (apoptotic nuclei)", "setting": "[2]; cells transfected with BAD[S136A], BAD[S155A] versus wild-type BAD", "result": "increased"}, {"measurement": "cisplatin-induced apoptosis (percent apoptotic nuclei)", "setting": "[3]; siRNA depletion of PKA versus non-targeting control siRNA", "result": "increased"}, {"measurement": "cisplatin-induced apoptosis (percent apoptotic nuclei)", "setting": "[3]; siRNA depletion of PP2C/PPM1A", "result": "decreased"}]}
